{
  "source": "PubChem BioAssay (NCI)",
  "note": "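Protocol summary: plate cells (96-well), add compound at 5 concentrations, incubate 48 h, interpolate endpoints linearly. Abbreviation: GI50, concentration required for 50% inhibition of growth. TGI: concentration producing complete growth inhibition.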",
  "data": [
    {"test_system": "HCT-116 colon", "test": "NCI-60 cell line screen, 48 h", "units": {"GI50": "µM", "TGI": "µM"}, "values": [
      {"smiles": "Clc1cccc(Cc2cn3cc(-c4ccccc4)nc3s2)c1Cl", "GI50": "> 100", "TGI": "> 100"},
      {"smiles": "O=C1/C(=C/c2ccc([N+](=O)[O-])cc2)COc2ccc(O)c(O)c21", "GI50": 1.57, "TGI": 3.35},
      {"smiles": "CN(C)c1ccc(-c2cc(-c3ccc(Nc4nc(Nc5ccc(Cl)cc5)nc(Nc5ccc(Cl)cc5)n4)cc3)no2)cc1", "GI50": 2.84, "TGI": 11.8},
      {"smiles": "NC(N)=N/N=C/c1c(-c2ccc(Cl)c([N+](=O)[O-])c2)nc2sc(Cl)cn12", "TGI": "> 100"},
      {"smiles": "COC(=O)c1ccc2[nH]c(O)c(C(=Nc3ccc(N(C)C(=O)CN4CCN(C)CC4)cc3)c3ccc(C)cc3)c2c1", "GI50": 0.124, "TGI": 1.27}
    ]},
    {"test_system": "IGROV1 ovarian", "test": "NCI-60 cell line screen, 48 h", "units": {"GI50": "µM", "TGI": "µM"}, "values": [
      {"smiles": "Clc1cccc(Cc2cn3cc(-c4ccccc4)nc3s2)c1Cl", "GI50": 31.4, "TGI": "> 100"},
      {"smiles": "O=C1/C(=C/c2ccc([N+](=O)[O-])cc2)COc2ccc(O)c(O)c21", "GI50": 1.25, "TGI": 3.55},
      {"smiles": "CN(C)c1ccc(-c2cc(-c3ccc(Nc4nc(Nc5ccc(Cl)cc5)nc(Nc5ccc(Cl)cc5)n4)cc3)no2)cc1", "GI50": 2.06, "TGI": 15},
      {"smiles": "NC(N)=N/N=C/c1c(-c2ccc(Cl)c([N+](=O)[O-])c2)nc2sc(Cl)cn12", "TGI": 3.18}
    ]},
    {"test_system": "DU-145 prostate", "test": "NCI-60 cell line screen, 48 h", "units": {"GI50": "µM", "TGI": "µM"}, "values": [
      {"smiles": "Clc1cccc(Cc2cn3cc(-c4ccccc4)nc3s2)c1Cl", "GI50": 22.4, "TGI": "> 100"},
      {"smiles": "O=C1/C(=C/c2ccc([N+](=O)[O-])cc2)COc2ccc(O)c(O)c21", "GI50": 1.46, "TGI": 2.85},
      {"smiles": "CN(C)c1ccc(-c2cc(-c3ccc(Nc4nc(Nc5ccc(Cl)cc5)nc(Nc5ccc(Cl)cc5)n4)cc3)no2)cc1", "GI50": 3.86, "TGI": 16.4}
    ]},
    {"test_system": "A549 NSCLC", "test": "NCI-60 cell line screen, 48 h", "units": {"GI50": "µM", "TGI": "µM"}, "values": [
      {"smiles": "Clc1cccc(Cc2cn3cc(-c4ccccc4)nc3s2)c1Cl", "GI50": 27.2, "TGI": "> 100"},
      {"smiles": "O=C1/C(=C/c2ccc([N+](=O)[O-])cc2)COc2ccc(O)c(O)c21", "GI50": 2.04, "TGI": 5.17},
      {"smiles": "CN(C)c1ccc(-c2cc(-c3ccc(Nc4nc(Nc5ccc(Cl)cc5)nc(Nc5ccc(Cl)cc5)n4)cc3)no2)cc1", "GI50": 5.12, "TGI": 27.5},
      {"smiles": "NC(N)=N/N=C/c1c(-c2ccc(Cl)c([N+](=O)[O-])c2)nc2sc(Cl)cn12", "TGI": 7}
    ]},
    {"test_system": "CAKI-1 renal", "test": "NCI-60 cell line screen, 48 h", "units": {"GI50": "µM", "TGI": "µM"}, "values": [
      {"smiles": "Clc1cccc(Cc2cn3cc(-c4ccccc4)nc3s2)c1Cl", "GI50": "> 100", "TGI": "> 100"},
      {"smiles": "O=C1/C(=C/c2ccc([N+](=O)[O-])cc2)COc2ccc(O)c(O)c21", "GI50": 1.27, "TGI": 2.54},
      {"smiles": "CN(C)c1ccc(-c2cc(-c3ccc(Nc4nc(Nc5ccc(Cl)cc5)nc(Nc5ccc(Cl)cc5)n4)cc3)no2)cc1", "GI50": 2.8, "TGI": "> 100"},
      {"smiles": "COC(=O)c1ccc2[nH]c(O)c(C(=Nc3ccc(N(C)C(=O)CN4CCN(C)CC4)cc3)c3ccc(C)cc3)c2c1", "GI50": 0.132, "TGI": 1.48}
    ]},
    {"test_system": "SK-OV-3 ovarian", "test": "NCI-60 cell line screen, 48 h", "units": {"GI50": "µM", "TGI": "µM"}, "values": [
      {"smiles": "Clc1cccc(Cc2cn3cc(-c4ccccc4)nc3s2)c1Cl", "GI50": 10.3, "TGI": 97.6},
      {"smiles": "O=C1/C(=C/c2ccc([N+](=O)[O-])cc2)COc2ccc(O)c(O)c21", "GI50": 2.98, "TGI": 9.62},
      {"smiles": "CN(C)c1ccc(-c2cc(-c3ccc(Nc4nc(Nc5ccc(Cl)cc5)nc(Nc5ccc(Cl)cc5)n4)cc3)no2)cc1", "GI50": 20, "TGI": 67}
    ]},
    {"test_system": "OVCAR-5 ovarian", "test": "NCI-60 cell line screen, 48 h", "units": {"GI50": "µM", "TGI": "µM"}, "values": [
      {"smiles": "Clc1cccc(Cc2cn3cc(-c4ccccc4)nc3s2)c1Cl", "GI50": "> 100", "TGI": "> 100"},
      {"smiles": "O=C1/C(=C/c2ccc([N+](=O)[O-])cc2)COc2ccc(O)c(O)c21", "GI50": 1.81, "TGI": 3.74},
      {"smiles": "CN(C)c1ccc(-c2cc(-c3ccc(Nc4nc(Nc5ccc(Cl)cc5)nc(Nc5ccc(Cl)cc5)n4)cc3)no2)cc1", "GI50": 17.3, "TGI": 50.2},
      {"smiles": "NC(N)=N/N=C/c1c(-c2ccc(Cl)c([N+](=O)[O-])c2)nc2sc(Cl)cn12", "TGI": "> 100"}
    ]},
    {"test_system": "KM12 colon", "test": "NCI-60 cell line screen, 48 h", "units": {"GI50": "µM", "TGI": "µM"}, "values": [
      {"smiles": "Clc1cccc(Cc2cn3cc(-c4ccccc4)nc3s2)c1Cl", "GI50": 6.35, "TGI": "> 100"},
      {"smiles": "O=C1/C(=C/c2ccc([N+](=O)[O-])cc2)COc2ccc(O)c(O)c21", "GI50": 1.58, "TGI": 3.47},
      {"smiles": "CN(C)c1ccc(-c2cc(-c3ccc(Nc4nc(Nc5ccc(Cl)cc5)nc(Nc5ccc(Cl)cc5)n4)cc3)no2)cc1", "GI50": 4.11, "TGI": 25.3}
    ]},
    {"test_system": "786-0 renal", "test": "NCI-60 cell line screen, 48 h", "units": {"GI50": "µM", "TGI": "µM"}, "values": [
      {"smiles": "Clc1cccc(Cc2cn3cc(-c4ccccc4)nc3s2)c1Cl", "GI50": "> 100", "TGI": "> 100"},
      {"smiles": "O=C1/C(=C/c2ccc([N+](=O)[O-])cc2)COc2ccc(O)c(O)c21", "GI50": 1.35, "TGI": 3.59},
      {"smiles": "CN(C)c1ccc(-c2cc(-c3ccc(Nc4nc(Nc5ccc(Cl)cc5)nc(Nc5ccc(Cl)cc5)n4)cc3)no2)cc1", "GI50": 1.51, "TGI": 3.66},
      {"smiles": "NC(N)=N/N=C/c1c(-c2ccc(Cl)c([N+](=O)[O-])c2)nc2sc(Cl)cn12", "TGI": "> 100"},
      {"smiles": "COC(=O)c1ccc2[nH]c(O)c(C(=Nc3ccc(N(C)C(=O)CN4CCN(C)CC4)cc3)c3ccc(C)cc3)c2c1", "GI50": 0.336, "TGI": 1.78}
    ]},
    {"test_system": "A498 renal", "test": "NCI-60 cell line screen, 48 h", "units": {"GI50": "µM", "TGI": "µM"}, "values": [
      {"smiles": "O=C1/C(=C/c2ccc([N+](=O)[O-])cc2)COc2ccc(O)c(O)c21", "GI50": 1.71, "TGI": 3.91},
      {"smiles": "CN(C)c1ccc(-c2cc(-c3ccc(Nc4nc(Nc5ccc(Cl)cc5)nc(Nc5ccc(Cl)cc5)n4)cc3)no2)cc1", "GI50": 4.38, "TGI": 22.7},
      {"smiles": "COC(=O)c1ccc2[nH]c(O)c(C(=Nc3ccc(N(C)C(=O)CN4CCN(C)CC4)cc3)c3ccc(C)cc3)c2c1", "GI50": 0.458, "TGI": 1.96}
    ]},
    {"test_system": "TK-10 renal", "test": "NCI-60 cell line screen, 48 h", "units": {"GI50": "µM", "TGI": "µM"}, "values": [
      {"smiles": "Clc1cccc(Cc2cn3cc(-c4ccccc4)nc3s2)c1Cl", "GI50": 26.1, "TGI": "> 100"},
      {"smiles": "O=C1/C(=C/c2ccc([N+](=O)[O-])cc2)COc2ccc(O)c(O)c21", "GI50": 1.68, "TGI": 3.99},
      {"smiles": "CN(C)c1ccc(-c2cc(-c3ccc(Nc4nc(Nc5ccc(Cl)cc5)nc(Nc5ccc(Cl)cc5)n4)cc3)no2)cc1", "GI50": 16.3, "TGI": "> 100"},
      {"smiles": "NC(N)=N/N=C/c1c(-c2ccc(Cl)c([N+](=O)[O-])c2)nc2sc(Cl)cn12", "TGI": 58.5}
    ]},
    {"test_system": "NCI-H226 lung", "test": "NCI-60 cell line screen, 48 h", "units": {"GI50": "µM", "TGI": "µM"}, "values": [
      {"smiles": "Clc1cccc(Cc2cn3cc(-c4ccccc4)nc3s2)c1Cl", "GI50": 27.3, "TGI": "> 100"},
      {"smiles": "O=C1/C(=C/c2ccc([N+](=O)[O-])cc2)COc2ccc(O)c(O)c21", "GI50": 11, "TGI": 45.8},
      {"smiles": "CN(C)c1ccc(-c2cc(-c3ccc(Nc4nc(Nc5ccc(Cl)cc5)nc(Nc5ccc(Cl)cc5)n4)cc3)no2)cc1", "GI50": 20.2, "TGI": "> 100"},
      {"smiles": "NC(N)=N/N=C/c1c(-c2ccc(Cl)c([N+](=O)[O-])c2)nc2sc(Cl)cn12", "TGI": "> 100"}
    ]},
    {"test_system": "SR leukemia", "test": "NCI-60 cell line screen, 48 h", "units": {"GI50": "µM", "TGI": "µM"}, "values": [
      {"smiles": "O=C1/C(=C/c2ccc([N+](=O)[O-])cc2)COc2ccc(O)c(O)c21", "GI50": 0.463, "TGI": "> 100"},
      {"smiles": "CN(C)c1ccc(-c2cc(-c3ccc(Nc4nc(Nc5ccc(Cl)cc5)nc(Nc5ccc(Cl)cc5)n4)cc3)no2)cc1", "TGI": 1.74},
      {"smiles": "NC(N)=N/N=C/c1c(-c2ccc(Cl)c([N+](=O)[O-])c2)nc2sc(Cl)cn12", "TGI": "> 100"},
      {"smiles": "COC(=O)c1ccc2[nH]c(O)c(C(=Nc3ccc(N(C)C(=O)CN4CCN(C)CC4)cc3)c3ccc(C)cc3)c2c1", "GI50": 0.153, "TGI": 1.34}
    ]},
    {"test_system": "LOX IMVI melanoma", "test": "NCI-60 cell line screen, 48 h", "units": {"GI50": "µM", "TGI": "µM"}, "values": [
      {"smiles": "Clc1cccc(Cc2cn3cc(-c4ccccc4)nc3s2)c1Cl", "GI50": 14.5, "TGI": "> 100"},
      {"smiles": "O=C1/C(=C/c2ccc([N+](=O)[O-])cc2)COc2ccc(O)c(O)c21", "GI50": 1.05, "TGI": 2.29},
      {"smiles": "CN(C)c1ccc(-c2cc(-c3ccc(Nc4nc(Nc5ccc(Cl)cc5)nc(Nc5ccc(Cl)cc5)n4)cc3)no2)cc1", "GI50": 4.22, "TGI": 35.6}
    ]}
  ]
}
